From US20150064763A1, “Method for Producing Hydrocarbons and Oxygen-containing Compounds from Biomass” (SWEDISH BIOFUELS AB, priority 2003, published 2015) come the findings set out here.

For this test, the system named is formation of C3-C5 alcohols. The test can be described thus: Inhibition of C3-C5 alcohols formation in alcohol fermentation by yeast. Type of test: cell-based. Conditions: for effect on formation of C3-C5 alcohols: present in the substrate in addition to valine, leucine and isoleucine; for inhibition constant: formation of C3-C5 alcohols in alcohol fermentation. How it is done: Formation of C3-C5 alcohols is a result of active functioning of the process of deamination of amino acids in the yeast cells with formation of free ammonia. […] The yield of C3-C5 alcohols reached 3.1% of ethanol when pure valine, isoleucine, and leucine were the sole source of nitrogen nutrition of the yeast in the inventive fermentation process. Moreover, the maximum formation of C3-C5 alcohols in the inventive process of alcohol fermentation occurred at pH=6.0 of the medium and at 38° C. (standard conditions of alcohol fermentation pH 4.5-5.5; temperature 28-34° C.).

Setting [1] is: system with leucine as amino acid.

Take `N` [ammonium ions]: the “effect on formation of C3-C5 alcohols” value was “inhibits formation of C3-C5 alcohols”. As to `N.N.O=S(=O)(O)O` [ammonium sulphate], under setting [1], the inhibition constant came out at 750 mg/L. Regarding `NC(=O)C[C@H](N)C(=O)O` [asparagine], the “effect on formation of C3-C5 alcohols” value was “inhibits formation of C3-C5 alcohols”. The same compound had an inhibition constant under setting [1] of 730 mg/L. The inhibition constant (system with valine as amino acid) was found to be 650 mg/L.
